Columns and labels:
Set-up in all cases: scale not given: the % may be the effect or the level left
[1] = molecular target: Receptor tyrosine-protein kinase erbB-4 (Homo sapiens) (UniProt Q15303); test: Inhibition of human ERBB4 assessed as enzyme activity at 1 uM using poly[Glu:Tyr] (4:1) as substrate preincubated for 20 mins followed by [gamma-33P]-ATP addition and measured after 120 mins by radiometric Hot-SpotSM Kinase assay relative to control
[2] = molecular target: Cyclin-dependent kinase 14/Cyclin-Y (Homo sapiens) (UniProt O94921+Q8ND76); test: Inhibition of human CDK14/cyclin Y assessed as enzyme activity at 1 uM using RB Protein as substrate preincubated for 20 mins followed by [gamma-33P]-ATP addition and measured after 120 mins by radiometric Hot-SpotSM Kinase assay relative to control; type: protein-complex assay
[3] = molecular target: Protein-tyrosine kinase 6 (Homo sapiens) (UniProt Q13882); test: Inhibition of human BRK assessed as enzyme activity at 1 uM using poly[Glu:Tyr] (4:1) as substrate preincubated for 20 mins followed by [gamma-33P]-ATP addition and measured after 120 mins by radiometric Hot-SpotSM Kinase assay relative to control
[4] = molecular target: RAF proto-oncogene serine/threonine-protein kinase (Homo sapiens) (UniProt P04049); test: Inhibition of human RAF1 assessed as enzyme activity at 1 uM using MEK1 (K97R) as substrate preincubated for 20 mins followed by [gamma-33P]-ATP addition and measured after 120 mins by radiometric Hot-SpotSM Kinase assay relative to control
[5] = molecular target: T1, cAMP-dependent protein kinase catalytic subunit PRKX (Homo sapiens) (UniProt P51817); test: Inhibition of human PRKX assessed as enzyme activity at 1 uM using LRRASLG as substrate preincubated for 20 mins followed by [gamma-33P]-ATP addition and measured after 120 mins by radiometric Hot-SpotSM Kinase assay relative to control
T1 sequence (whole entry): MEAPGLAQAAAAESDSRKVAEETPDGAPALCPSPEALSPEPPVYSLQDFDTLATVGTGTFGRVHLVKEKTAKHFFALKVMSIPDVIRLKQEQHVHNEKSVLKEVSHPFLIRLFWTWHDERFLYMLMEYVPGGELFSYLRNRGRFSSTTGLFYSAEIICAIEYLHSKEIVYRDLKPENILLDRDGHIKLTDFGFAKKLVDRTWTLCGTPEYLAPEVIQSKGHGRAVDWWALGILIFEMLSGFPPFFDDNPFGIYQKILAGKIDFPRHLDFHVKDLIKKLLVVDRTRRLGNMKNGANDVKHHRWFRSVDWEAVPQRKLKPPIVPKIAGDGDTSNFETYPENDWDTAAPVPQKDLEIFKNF

[6] = molecular target: T2, Serine/threonine-protein kinase Nek11 (Homo sapiens) (UniProt Q8NG66); test: Inhibition of human NEK11 assessed as enzyme activity at 1 uM using myelin basic protein as substrate preincubated for 20 mins followed by [gamma-33P]-ATP addition and measured after 120 mins by radiometric Hot-SpotSM Kinase assay relative to control
T2 sequence (whole entry): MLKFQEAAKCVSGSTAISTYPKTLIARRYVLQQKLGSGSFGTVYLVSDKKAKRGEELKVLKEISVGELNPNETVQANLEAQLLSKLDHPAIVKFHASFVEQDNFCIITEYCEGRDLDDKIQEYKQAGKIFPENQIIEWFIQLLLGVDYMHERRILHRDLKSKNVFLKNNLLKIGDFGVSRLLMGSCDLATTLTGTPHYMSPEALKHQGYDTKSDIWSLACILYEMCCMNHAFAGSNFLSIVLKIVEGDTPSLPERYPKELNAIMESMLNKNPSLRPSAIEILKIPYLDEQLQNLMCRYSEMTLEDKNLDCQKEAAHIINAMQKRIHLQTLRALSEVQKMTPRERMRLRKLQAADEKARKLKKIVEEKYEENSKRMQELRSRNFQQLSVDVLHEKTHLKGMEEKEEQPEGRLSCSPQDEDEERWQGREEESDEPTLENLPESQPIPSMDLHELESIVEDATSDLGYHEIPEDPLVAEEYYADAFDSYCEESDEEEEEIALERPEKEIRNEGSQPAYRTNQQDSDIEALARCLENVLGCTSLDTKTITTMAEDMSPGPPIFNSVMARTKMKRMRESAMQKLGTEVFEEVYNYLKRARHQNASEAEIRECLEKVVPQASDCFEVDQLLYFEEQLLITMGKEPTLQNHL

[7] = molecular target: MAP/microtubule affinity-regulating kinase 3 (Homo sapiens) (UniProt P27448); test: Inhibition of human MARK3 assessed as enzyme activity at 1 uM using KKKVSRSGLYRSPSMPENLNRPR as substrate preincubated for 20 mins followed by [gamma-33P]-ATP addition and measured after 120 mins by radiometric Hot-SpotSM Kinase assay relative to control
[8] = molecular target: Tyrosine-protein kinase SYK (Homo sapiens) (UniProt P43405); test: Inhibition of human SYK assessed as enzyme activity at 1 uM using poly[Glu:Tyr] (4:1) as substrate preincubated for 20 mins followed by [gamma-33P]-ATP addition and measured after 120 mins by radiometric Hot-SpotSM Kinase assay relative to control
[9] = molecular target: T3, Activin receptor type-1 (Homo sapiens) (UniProt Q04771); test: Inhibition of human ALK2 assessed as enzyme activity at 1 uM using casein as substrate preincubated for 20 mins followed by [gamma-33P]-ATP addition and measured after 120 mins by radiometric Hot-SpotSM Kinase assay relative to control
T3 sequence (whole entry): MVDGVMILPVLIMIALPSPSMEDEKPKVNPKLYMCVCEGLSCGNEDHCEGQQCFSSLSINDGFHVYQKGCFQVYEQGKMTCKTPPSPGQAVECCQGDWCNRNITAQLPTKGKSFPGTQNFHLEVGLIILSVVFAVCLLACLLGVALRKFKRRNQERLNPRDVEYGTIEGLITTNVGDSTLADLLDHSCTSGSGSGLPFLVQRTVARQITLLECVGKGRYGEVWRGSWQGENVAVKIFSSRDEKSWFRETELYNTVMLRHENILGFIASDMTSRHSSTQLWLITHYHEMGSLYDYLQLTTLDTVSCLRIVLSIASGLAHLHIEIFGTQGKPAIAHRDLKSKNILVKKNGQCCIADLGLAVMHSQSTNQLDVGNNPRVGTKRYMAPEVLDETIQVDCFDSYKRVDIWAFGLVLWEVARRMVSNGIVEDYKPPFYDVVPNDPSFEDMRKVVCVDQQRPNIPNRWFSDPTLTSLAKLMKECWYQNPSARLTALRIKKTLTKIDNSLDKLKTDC

[10] = molecular target: Tyrosine-protein kinase Fes/Fps (Homo sapiens) (UniProt P07332); test: Inhibition of human FES/FPS assessed as enzyme activity at 1 uM using poly[Glu:Tyr] (4:1) as substrate preincubated for 20 mins followed by [gamma-33P]-ATP addition and measured after 120 mins by radiometric Hot-SpotSM Kinase assay relative to control
[11] = molecular target: Mitogen-activated protein kinase kinase kinase 8 (Homo sapiens) (UniProt P41279); test: Inhibition of human COT1 assessed as enzyme activity at 1 uM using MEK1 (K97R) as substrate preincubated for 20 mins followed by [gamma-33P]-ATP addition and measured after 120 mins by radiometric Hot-SpotSM Kinase assay relative to control
Chain of Mitogen-activated protein kinase kinase kinase 8 (Homo sapiens) (P41279 whole entry): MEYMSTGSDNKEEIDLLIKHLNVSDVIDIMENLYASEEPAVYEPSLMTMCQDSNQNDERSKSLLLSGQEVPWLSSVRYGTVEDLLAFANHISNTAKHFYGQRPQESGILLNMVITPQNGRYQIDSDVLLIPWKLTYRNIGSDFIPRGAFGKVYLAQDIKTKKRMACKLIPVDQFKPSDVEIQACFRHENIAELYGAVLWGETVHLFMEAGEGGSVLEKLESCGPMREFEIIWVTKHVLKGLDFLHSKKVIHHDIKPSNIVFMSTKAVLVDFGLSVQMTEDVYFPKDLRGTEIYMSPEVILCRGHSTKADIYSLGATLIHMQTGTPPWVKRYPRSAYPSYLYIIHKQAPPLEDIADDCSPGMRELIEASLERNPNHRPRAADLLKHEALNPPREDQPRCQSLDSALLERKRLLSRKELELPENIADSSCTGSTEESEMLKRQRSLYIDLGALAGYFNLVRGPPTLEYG

Chain of Receptor tyrosine-protein kinase erbB-4 (Homo sapiens) (Q15303 whole entry): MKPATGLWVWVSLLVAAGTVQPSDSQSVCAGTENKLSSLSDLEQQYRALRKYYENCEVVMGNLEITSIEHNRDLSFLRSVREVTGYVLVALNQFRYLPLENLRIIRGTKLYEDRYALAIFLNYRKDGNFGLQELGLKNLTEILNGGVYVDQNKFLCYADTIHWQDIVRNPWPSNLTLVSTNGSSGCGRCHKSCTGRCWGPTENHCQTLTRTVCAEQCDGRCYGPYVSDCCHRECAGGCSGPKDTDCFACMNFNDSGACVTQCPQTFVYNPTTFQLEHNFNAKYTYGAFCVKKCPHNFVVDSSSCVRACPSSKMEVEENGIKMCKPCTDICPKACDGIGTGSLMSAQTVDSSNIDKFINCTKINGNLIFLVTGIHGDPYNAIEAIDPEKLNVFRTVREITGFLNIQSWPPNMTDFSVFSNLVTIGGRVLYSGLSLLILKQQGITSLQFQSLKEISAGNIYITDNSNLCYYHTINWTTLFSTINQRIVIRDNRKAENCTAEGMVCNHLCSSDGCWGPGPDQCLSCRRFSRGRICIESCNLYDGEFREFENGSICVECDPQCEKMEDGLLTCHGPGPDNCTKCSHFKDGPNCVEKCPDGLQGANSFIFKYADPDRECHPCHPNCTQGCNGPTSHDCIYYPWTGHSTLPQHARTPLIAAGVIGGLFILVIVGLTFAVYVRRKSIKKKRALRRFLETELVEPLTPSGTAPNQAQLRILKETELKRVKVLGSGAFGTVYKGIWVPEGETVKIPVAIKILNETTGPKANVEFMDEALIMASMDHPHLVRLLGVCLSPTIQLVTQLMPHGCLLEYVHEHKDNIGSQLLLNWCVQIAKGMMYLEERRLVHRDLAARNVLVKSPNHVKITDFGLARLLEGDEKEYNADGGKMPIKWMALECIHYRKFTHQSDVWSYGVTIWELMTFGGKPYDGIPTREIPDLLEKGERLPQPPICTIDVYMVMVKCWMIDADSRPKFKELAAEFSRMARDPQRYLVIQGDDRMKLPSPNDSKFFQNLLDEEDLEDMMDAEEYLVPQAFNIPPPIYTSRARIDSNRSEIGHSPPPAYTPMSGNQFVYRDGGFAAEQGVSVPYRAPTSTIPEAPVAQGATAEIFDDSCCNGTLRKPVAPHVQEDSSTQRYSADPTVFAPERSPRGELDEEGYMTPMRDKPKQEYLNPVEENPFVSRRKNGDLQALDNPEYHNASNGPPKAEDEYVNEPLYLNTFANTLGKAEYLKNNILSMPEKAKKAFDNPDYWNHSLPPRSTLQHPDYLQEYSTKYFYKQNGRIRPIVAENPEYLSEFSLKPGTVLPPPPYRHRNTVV
Chain of MAP/microtubule affinity-regulating kinase 3 (Homo sapiens) (P27448 whole entry, looked up): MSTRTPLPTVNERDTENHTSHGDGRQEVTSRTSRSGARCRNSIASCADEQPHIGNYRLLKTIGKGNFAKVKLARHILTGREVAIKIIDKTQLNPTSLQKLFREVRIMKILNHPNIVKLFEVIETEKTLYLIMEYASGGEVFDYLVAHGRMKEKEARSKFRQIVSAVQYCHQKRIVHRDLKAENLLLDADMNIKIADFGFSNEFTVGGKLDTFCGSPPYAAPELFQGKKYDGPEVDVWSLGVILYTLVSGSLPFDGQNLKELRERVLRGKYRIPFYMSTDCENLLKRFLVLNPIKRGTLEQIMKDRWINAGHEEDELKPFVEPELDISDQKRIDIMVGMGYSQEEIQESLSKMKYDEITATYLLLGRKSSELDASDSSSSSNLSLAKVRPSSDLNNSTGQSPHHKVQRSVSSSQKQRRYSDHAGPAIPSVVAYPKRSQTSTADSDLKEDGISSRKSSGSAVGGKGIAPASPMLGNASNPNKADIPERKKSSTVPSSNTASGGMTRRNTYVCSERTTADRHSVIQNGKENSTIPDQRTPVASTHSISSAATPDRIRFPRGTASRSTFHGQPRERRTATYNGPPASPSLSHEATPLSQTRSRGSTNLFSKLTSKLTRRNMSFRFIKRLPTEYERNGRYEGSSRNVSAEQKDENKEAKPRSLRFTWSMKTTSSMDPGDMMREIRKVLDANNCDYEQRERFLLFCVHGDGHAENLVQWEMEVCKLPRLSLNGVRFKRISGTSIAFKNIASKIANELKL
Chain of RAF proto-oncogene serine/threonine-protein kinase (Homo sapiens) (P04049 whole entry): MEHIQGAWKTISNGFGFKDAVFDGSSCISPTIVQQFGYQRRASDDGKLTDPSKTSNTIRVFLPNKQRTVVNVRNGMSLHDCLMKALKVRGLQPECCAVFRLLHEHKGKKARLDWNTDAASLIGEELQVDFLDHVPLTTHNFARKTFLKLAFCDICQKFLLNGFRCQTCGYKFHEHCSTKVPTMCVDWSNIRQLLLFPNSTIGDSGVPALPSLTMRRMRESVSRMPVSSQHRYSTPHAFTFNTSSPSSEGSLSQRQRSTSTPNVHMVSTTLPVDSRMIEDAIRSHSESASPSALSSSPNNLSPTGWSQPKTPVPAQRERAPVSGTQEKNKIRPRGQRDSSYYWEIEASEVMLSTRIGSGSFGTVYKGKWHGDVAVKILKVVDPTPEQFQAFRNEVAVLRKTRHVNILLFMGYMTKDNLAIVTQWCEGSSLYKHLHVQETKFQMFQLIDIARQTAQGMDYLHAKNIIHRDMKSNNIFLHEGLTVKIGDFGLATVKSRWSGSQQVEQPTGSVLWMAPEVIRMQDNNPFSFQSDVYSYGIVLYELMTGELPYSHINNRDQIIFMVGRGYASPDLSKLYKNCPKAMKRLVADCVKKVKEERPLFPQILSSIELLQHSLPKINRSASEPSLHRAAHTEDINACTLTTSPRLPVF
Chain of Protein-tyrosine kinase 6 (Homo sapiens) (Q13882 whole entry, looked up): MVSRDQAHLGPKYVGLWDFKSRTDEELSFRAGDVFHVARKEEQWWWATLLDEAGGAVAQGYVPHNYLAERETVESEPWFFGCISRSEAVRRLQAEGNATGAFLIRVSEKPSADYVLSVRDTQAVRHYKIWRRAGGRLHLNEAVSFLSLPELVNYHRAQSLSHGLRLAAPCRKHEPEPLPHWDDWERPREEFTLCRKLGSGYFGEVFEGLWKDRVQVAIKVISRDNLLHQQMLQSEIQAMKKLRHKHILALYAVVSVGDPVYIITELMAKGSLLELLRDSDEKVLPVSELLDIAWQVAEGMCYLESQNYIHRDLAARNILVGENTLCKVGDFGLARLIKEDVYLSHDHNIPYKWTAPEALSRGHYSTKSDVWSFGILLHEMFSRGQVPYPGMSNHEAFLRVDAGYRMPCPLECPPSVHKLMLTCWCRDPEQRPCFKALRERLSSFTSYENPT
Chain of Tyrosine-protein kinase Fes/Fps (Homo sapiens) (P07332 whole entry): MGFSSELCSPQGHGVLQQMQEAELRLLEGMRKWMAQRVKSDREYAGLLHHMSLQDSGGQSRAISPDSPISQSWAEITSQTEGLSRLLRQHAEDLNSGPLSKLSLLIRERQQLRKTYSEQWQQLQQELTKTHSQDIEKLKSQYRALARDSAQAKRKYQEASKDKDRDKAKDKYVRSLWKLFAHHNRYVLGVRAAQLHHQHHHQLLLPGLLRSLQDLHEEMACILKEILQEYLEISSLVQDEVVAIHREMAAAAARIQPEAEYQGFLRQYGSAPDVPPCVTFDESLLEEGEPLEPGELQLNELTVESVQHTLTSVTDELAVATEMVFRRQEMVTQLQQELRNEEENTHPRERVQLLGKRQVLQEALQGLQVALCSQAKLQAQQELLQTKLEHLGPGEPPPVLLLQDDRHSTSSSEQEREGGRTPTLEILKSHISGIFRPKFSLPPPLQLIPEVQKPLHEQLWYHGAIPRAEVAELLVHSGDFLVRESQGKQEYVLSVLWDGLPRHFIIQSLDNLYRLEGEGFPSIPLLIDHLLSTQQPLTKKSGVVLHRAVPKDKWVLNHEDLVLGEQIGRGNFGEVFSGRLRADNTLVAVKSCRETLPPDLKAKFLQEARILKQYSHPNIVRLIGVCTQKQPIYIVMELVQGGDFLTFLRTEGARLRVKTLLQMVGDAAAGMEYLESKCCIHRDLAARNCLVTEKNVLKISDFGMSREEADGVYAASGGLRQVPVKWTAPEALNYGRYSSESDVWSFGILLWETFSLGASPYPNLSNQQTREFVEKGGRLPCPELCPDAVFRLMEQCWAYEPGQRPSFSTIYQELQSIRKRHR

| Structure (SMILES) | Activity [1] [%] | Activity [2] [%] | Activity [3] [%] | Activity [4] [%] | Activity [5] [%] | Activity [6] [%] | Activity [7] [%] | Activity [8] [%] | Activity [9] [%] | Activity [10] [%] | Activity [11] [%] |
| --- | --- | --- | --- | --- | --- | --- | --- | --- | --- | --- | --- |
| C[C@H](Nc1ncnc2nc[nH]c12)c1cc2cccc(Cl)c2c(=O)n1-c1ccccc1 | 97.4 | 85.3 | 98.3 | 93.5 | 98.6 | 90.1 | 137 | 100 | 93.6 | 95.6 | 96.8 |
| CC[C@H](Nc1ncnc2[nH]cnc12)c1nc2cccc(F)c2c(=O)n1-c1ccccc1 | 101 | 77.4 | 97.6 | 95.3 | 97.6 | 84.5 | 130 | 103 | 94 | 91.5 | 101 |
| CC(C)Oc1ccc(-c2nn([C@@H](C)c3oc4ccc(F)cc4c(=O)c3-c3cccc(F)c3)c3ncnc(N)c23)cc1F [UMBRALISIB] | 101 | 79.3 | 97.9 | 93.1 | 90.8 | 84.8 | 100 | 102 | 95.5 | 97.5 | 98.2 |

Reference: ChEMBL document CHEMBL5715954, “Silencing c-Myc translation as a therapeutic strategy through targeting PI3Kδ and CK1ε in hematological malignancies” (Blood, 2017)
